Assay results published in PMC11995230 (ACS Medicinal Chemistry Letters, 2025).
Read-outs that look alike come from different tables or passages of the source.

How the values were obtained:
S. pasteurii urease = target: T1, S. pasteurii urease (Sporosarcina pasteurii, UniProt P41020); assay: Purified S. pasteurii urease inhibition, cresol red assay, no preincubation; type: biochemical, Sporosarcina pasteurii CCM 2056; settings: native purified urease, slow-binding, read-out: K i, S. pasteurii urease
T1 construct: The native urease, purified from S. pasteurii CCM 2056; made in house; host or cells: Sporosarcina pasteurii CCM 2056 (native, endogenous enzyme, not recombinant)
T1 sequence (P41020 whole entry): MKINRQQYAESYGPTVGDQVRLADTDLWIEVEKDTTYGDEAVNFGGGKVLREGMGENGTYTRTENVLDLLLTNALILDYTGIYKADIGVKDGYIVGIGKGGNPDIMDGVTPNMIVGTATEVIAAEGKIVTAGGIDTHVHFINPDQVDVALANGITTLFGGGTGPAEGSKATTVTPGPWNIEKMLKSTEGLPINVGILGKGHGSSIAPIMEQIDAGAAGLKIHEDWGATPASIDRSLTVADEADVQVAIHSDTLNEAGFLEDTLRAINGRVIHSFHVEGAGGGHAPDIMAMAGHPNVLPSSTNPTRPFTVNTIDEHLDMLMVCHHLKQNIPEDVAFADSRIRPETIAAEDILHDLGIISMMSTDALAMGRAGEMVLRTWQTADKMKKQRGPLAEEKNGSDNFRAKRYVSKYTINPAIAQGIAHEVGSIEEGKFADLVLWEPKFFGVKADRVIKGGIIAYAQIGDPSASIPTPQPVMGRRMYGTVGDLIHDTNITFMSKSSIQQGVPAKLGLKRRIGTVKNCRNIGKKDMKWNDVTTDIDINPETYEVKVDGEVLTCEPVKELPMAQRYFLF
T1 sequence (P41022 whole entry, further chain): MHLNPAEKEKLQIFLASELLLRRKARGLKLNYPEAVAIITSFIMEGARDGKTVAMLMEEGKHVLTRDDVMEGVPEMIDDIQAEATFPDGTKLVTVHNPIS
T1 sequence (P41021 whole entry, further chain): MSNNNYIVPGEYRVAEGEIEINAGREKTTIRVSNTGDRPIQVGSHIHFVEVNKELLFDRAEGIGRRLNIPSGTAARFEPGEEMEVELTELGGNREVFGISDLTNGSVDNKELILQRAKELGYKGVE
Description: compounds. Helicobacter pylori 2CLM belongs to the collection of the Department of Microbiology, Wrocław Medical University, Poland.
Purification of S. pasteurii urease
The native urease from the cells of S. pasteurii was induced and purified in a five-step chromatographic procedure, as previously described.S5 The protein concentration was […]
(§1) Enzymatic activity assays
(§2) Purified urease activity with the addition of the organoselenium compounds studied was measured using cresol red as an indicator of pH changes caused by ammonia produced during ureolysis.S6 The reaction was carried out in 3 mM phosphate buffer containing 30 mM urea, 0.01 % w/v cresol red, purified urease (at a concentration that led to a change in A570 of approximately 1.5 in 90 min) and studied compounds at various concentrations. The reaction was followed by using a TECAN Sunrise spectrometer , and the resulting progress curves were further analyzed to determine the activity and binding mechanism. The rea ction was followed in a system without preincubation of the enzyme with the benzisoselenazolone derivatives (addition of urease initiated the measurement).
The progress curves were fitted to the following equation to calculate the apparent reaction rate constants ( kapp):
P = v ∗ t + 0 s ∗ (1 − e−kapp∗t)
P – product concentration; t – time; v0 – initial state velocity; vs – steady state velocity.
The kapp values were then plotted against the inhibitor concentration [I], and the resulting linear function was used to calculate the dissociation […] of the EI complex (Ki): […]

[1] = test system: H. pylori Tx30a (ATCC 51932) live cells; assay: Whole cell ureolysis assay, cresol red; type: cell-based, Helicobacter pylori
Description: as §1
as §2, with “measurement). […]” for “measurement).”
Whole cell ureolysis assays
To measure the inhibitory activity of the compounds studied against whole cells of ureolytic pathogens, the cresol red reaction was carried out using H. pylori cells that were washed twice with 10 mM PBS and used as a biocatalyst.S6 The reaction mixture contained 10 mM PBS, 10 […]
mM urea, bacterial cells, and urease inhibitors. The results were then used to calculate the IC50 values of the organoselenium compounds against the whole cell ureolysis of H. pylori. […]

[2] = test system: Proteus mirabilis pathogenic cells; settings: previously reported by the authors; reference number not given; read-out: IC50, ureolysis in Proteus mirabilis pathogenic cells; cited from earlier work
[3] = test system: multidrug-resistant clinical isolate H. pylori 2CML; assay: Antimicrobial activity alone and in combination with antibiotics, checkerboard method; type: cell-based, Helicobacter pylori; settings: for MIC: Helicobacter pylori
Description: Combination of drugs against H. pylori 2CML
A multidrug-resistant clinical isolate H. pylori 2CML from the collection of the Department of Microbiology, Wrocław Medical University)S7 was used to assess the antimicrobial activity of compounds 1 and 4m, in combination with Clarithromycin, Metronidazole, and Levofloxacin (Sigma-Aldrich). The experiments were carried out on flat-bottom 12-well microtiter plates (Bionovo, Legnica, Poland), arranged in a 48-well panel to use the checkboard method.S8 […]
the selected antibiotic were placed in external wells along the x- and y-axes, respectively. The remaining wells contained varying concentrations of both compounds. Each well consisted of 1 mL of Brain Heart Infusion (Oxoid, Le Pont de Claix , France) broth with 5% foetal calf serum (Gibco, Paisley, Scotland, UK) , a bacterial suspension of 10^7 CFU/mL and the desired concentration of the antimicrobial (s) tested. Following the setup, the plates were incubated for 3 days at 37 °C under microaerophilic conditions (GENbox microaer kits, BioMerrieux, Marcy l’Etoile, France), shaking at 100 rpm.
The minimum inhibitory concentration (MIC) was determined as the lowest concentration in which no microbial growth was observed .
The interactions between antimicrobials were interpreted b y calculation of the fractional inhibitory concentration (FIC) index (FICI), defined as FICI = FICA + FICB (FICA = MIC of substance A in combination / MIC of substance A alone, FICB = MIC of substance B in combination / MIC of substance B alone). FICI ≤0.5 was considered as synergism; >0.5 but ≤1 as additivity, while […] as neutral.

[4] = Helicobacter pylori, ATCC51932, read-out: IC50, H. pylori whole-cell ureolysis, live cells of H. pylori Tx30a
[5] = read-out: IC50, H. pylori whole-cell ureolysis, live cells of H. pylori Tx30a
[6] = 72 h, H. pylori 2CML, single agent, read-out: MIC Alone
[7] = H. pylori 2CML, single agent, read-out: MIC Alone
[8] = pair Ebselen + Clarithromycin, H. pylori 2CML
[9] = pair Ebselen + Levofloxacin, H. pylori 2CML
[10] = pair Ebselen + Metronidazole, H. pylori 2CML
[11] = pair 4m + Metronidazole, H. pylori 2CML
[12] = pair 4m + Clarithromycin, H. pylori 2CML
[13] = pair 4m + Levofloxacin, H. pylori 2CML

O=c1c2ccccc2[se]n1Cc1cc(F)ccc1Cl [4i]
Ki (S. pasteurii urease): 0.543 ± 0.015 nM | IC50 [1, 4]: < 100 nM | IC50 [1, 5]: 96.4 ± 1.7 nM

O=c1c2ccccc2[se]n1Cc1ccc(F)c(F)c1 [4l]
Ki (S. pasteurii urease): 3.35 ± 0.65 nM | IC50 [1, 4]: 110 ± 4.5 nM

O=c1c2ccccc2[se]n1Cc1ccccc1F [4a]
Ki (S. pasteurii urease): 3.61 ± 0.28 nM | IC50 [1, 4]: 171 ± 5.4 nM

O=c1c2ccccc2[se]n1Cc1ccccc1 [compound 3]
IC50 ([1]; Helicobacter pylori, ATCC51932, live cells of H. pylori Tx30a, read-out: IC50, H. pylori whole-cell ureolysis): 151 ± 5.7 nM

O=c1c2ccccc2[se]n1Cc1ccc(F)cc1 [4d]
Ki (S. pasteurii urease): 25.4 ± 2.8 nM | IC50 [1, 4]: 193 ± 8.1 nM

O=c1c2ccccc2[se]n1Cc1cccc(F)c1 [4b]
Ki (S. pasteurii urease): 12.2 ± 0.4 nM | IC50 [1, 4]: 154 ± 8.4 nM

O=c1c2ccccc2[se]n1-c1ccccc1 [compound 1, N-phenyl-1,2-benzisoselenazol-3(2H)-one]
IC50 [2]: 29.2 ± 3.1 nM | IC50 [1, 4]: 742 ± 41 nM | MIC [3, 6]: 0.857 µg/mL | MIC [3, 7]: 0.857 µg/mL | MIC ([3]; H. pylori 2CML, single agent, read-out: MIC alone): 3.12 µM | FIC ([3]; pair Ebselen + Clarithromycin): 0.5 | FICI ([3]; pair Ebselen + Clarithromycin): 1 | Interpretation ([3]; pair Ebselen + Clarithromycin): Additive (>0.5 but ≤1 as additivity) | MIC Combination [3, 8]: 0.429 µg/mL | FIC ([3]; pair Ebselen + Levofloxacin): 0.5 | FICI ([3]; pair Ebselen + Levofloxacin): 1 | Interpretation ([3]; pair Ebselen + Levofloxacin): Additive (>0.5 but ≤1 as additivity) | MIC Combination [3, 9]: 0.429 µg/mL | FIC ([3]; pair Ebselen + Metronidazole): 0.5 | FICI ([3]; pair Ebselen + Metronidazole): 1 | Interpretation ([3]; pair Ebselen + Metronidazole): Additive (>0.5 but ≤1 as additivity) | MIC Combination [3, 10]: 0.429 µg/mL

N-(4-chloro-2-fluorophenyl)-1,2-benzisoselenazol-3(2H)-one [compound 2, reference compound]
IC50 ([1]; live cells of H. pylori Tx30a, read-out: IC50, H. pylori whole-cell ureolysis): 337 nM

O=c1c2ccccc2[se]n1Cc1ccc(F)cc1F [4g]
Ki (S. pasteurii urease): 2.52 ± 0.19 nM | IC50 [1, 4]: 287 ± 18 nM

O=c1c2ccccc2[se]n1Cc1ccc(C(F)(F)F)cc1 [4e]
Ki (S. pasteurii urease): 2.1 ± 0.19 nM | IC50 [1, 4]: 170 ± 1.6 nM

O=c1c2ccccc2[se]n1Cc1ccc(F)c(F)c1F [4r]
Ki (S. pasteurii urease): 2.94 ± 0.26 nM | IC50 [1, 4]: 179 ± 3.3 nM

O=c1c2ccccc2[se]n1Cc1ccc(Cl)c(C(F)(F)F)c1 [4n]
Ki (S. pasteurii urease): 18.6 ± 0.37 nM | IC50 [1, 4]: 153 ± 5.4 nM

O=c1c2ccccc2[se]n1Cc1cc(C(F)(F)F)cc(C(F)(F)F)c1 [4q]
Ki (S. pasteurii urease): 3.32 ± 0.29 nM | IC50 [1, 4]: 208 ± 4.5 nM

Cc1ncc([N+](=O)[O-])n1CCO [Metronidazole]
MIC [3, 6]: 64 µg/mL | MIC [3, 7]: 64 µg/mL | FIC ([3]; pair 4m + Metronidazole): 0.5 | Fold change of MIC (reduction) ([3]; pair 4m + Metronidazole): ×2↓ | MIC Combination [3, 11]: 32 µg/mL | FIC ([3]; pair Ebselen + Metronidazole): 0.5 | Fold change of MIC (reduction) ([3]; pair Ebselen + Metronidazole): ×2↓ | MIC Combination [3, 10]: 32 µg/mL

O=c1c2ccccc2[se]n1Cc1ccc(C(F)(F)F)c(F)c1 [4m]
Ki (S. pasteurii urease): 15.9 ± 1.9 nM | IC50 [1, 4]: < 100 nM | IC50 [1, 5]: 93.5 ± 5.3 nM | MIC ([3]; 72 h, read-out: MIC Alone): 1.17 µg/mL | MIC ([3]; read-out: MIC Alone): 1.17 µg/mL | MIC ([3]; read-out: MIC alone): 3.12 µM | FIC ([3]; pair 4m + Clarithromycin): 0.0625 | FICI ([3]; pair 4m + Clarithromycin): 0.562 | Interpretation ([3]; pair 4m + Clarithromycin): Additive (>0.5 but ≤1 as additivity) | MIC Combination [3, 12]: 0.0731 µg/mL | MIC in combination [3, 12]: 0.2 µM | FIC ([3]; pair 4m + Levofloxacin): 0.5 | FICI ([3]; pair 4m + Levofloxacin): 1 | Fold change of MIC (reduction) ([3]; pair 4m + Levofloxacin): ×2↓ | Interpretation ([3]; pair 4m + Levofloxacin): Additive (>0.5 but ≤1 as additivity) | MIC Combination [3, 13]: 0.585 µg/mL | FIC ([3]; pair 4m + Metronidazole): 0.125 | FICI ([3]; pair 4m + Metronidazole): 0.625 | Interpretation ([3]; pair 4m + Metronidazole): Additive (>0.5 but ≤1 as additivity) | MIC Combination [3, 11]: 0.146 µg/mL

O=c1c2ccccc2[se]n1Cc1ccc(Cl)c(Cl)c1 [4k]
Ki (S. pasteurii urease): 15.9 ± 0.65 nM | IC50 [1, 4]: 315 ± 4.7 nM

O=c1c2ccccc2[se]n1Cc1cc(Cl)ccc1Cl [4h]
Ki (S. pasteurii urease): 9.04 ± 0.22 nM | IC50 [1, 4]: 341 ± 23 nM

O=c1c2ccccc2[se]n1Cc1ccc(Cl)cc1Cl [4f]
Ki (S. pasteurii urease): 0.594 ± 0.032 nM | IC50 [1, 4]: 345 ± 16 nM

O=c1c2ccccc2[se]n1Cc1cc(F)cc(F)c1 [4p]
Ki (S. pasteurii urease): 1.3 ± 0.027 nM | IC50 [1, 4]: 122 ± 4.1 nM

O=c1c2ccccc2[se]n1Cc1c(F)cccc1F [4j]
Ki (S. pasteurii urease): 1.16 ± 0.14 nM | IC50 [1, 4]: 218 ± 14 nM

C[C@H]1COc2c(N3CCN(C)CC3)c(F)cc3c(=O)c(C(=O)O)cn1c23 [Levofloxacin]
MIC [3, 6]: 16 µg/mL | MIC [3, 7]: 16 µg/mL | FIC ([3]; pair 4m + Levofloxacin): 0.5 | Fold change of MIC (reduction) ([3]; pair 4m + Levofloxacin): ×2↓ | MIC Combination [3, 13]: 8 µg/mL | FIC ([3]; pair Ebselen + Levofloxacin): 0.5 | Fold change of MIC (reduction) ([3]; pair Ebselen + Levofloxacin): ×2↓ | MIC Combination [3, 9]: 8 µg/mL

CC[C@H]1OC(=O)[C@H](C)[C@@H](O[C@H]2C[C@@](C)(OC)[C@@H](O)[C@H](C)O2)[C@H](C)[C@@H](O[C@@H]2O[C@H](C)C[C@H](N(C)C)[C@H]2O)[C@](C)(OC)C[C@@H](C)C(=O)[C@H](C)[C@@H](O)[C@]1(C)O [Clarithromycin]
MIC [3, 6]: 16 µg/mL | MIC [3, 7]: 16 µg/mL | FIC ([3]; pair 4m + Clarithromycin): 0.5 | Fold change of MIC (reduction) ([3]; pair 4m + Clarithromycin): ×2↓ | MIC Combination [3, 12]: 8 µg/mL | FIC ([3]; pair Ebselen + Clarithromycin): 0.5 | Fold change of MIC (reduction) ([3]; pair Ebselen + Clarithromycin): ×2↓ | MIC Combination [3, 8]: 8 µg/mL

O=c1c2ccccc2[se]n1Cc1cccc(C(F)(F)F)c1 [4c]
Ki (S. pasteurii urease): 2.5 ± 0.24 nM | IC50 [1, 4]: 112 ± 2.4 nM

O=c1c2ccccc2[se]n1Cc1ccc(F)c(C(F)(F)F)c1 [4o]
Ki (S. pasteurii urease): 2.99 ± 0.088 nM | IC50 [1, 4]: 107 ± 1.9 nM
